Assay results published in article PMC8072890, “Aminoalkylamides of Eremomycin Exhibit an Improved Antibacterial Activity” (Pharmaceuticals, 2021).
Marks after values point to notes of the source that are not given here.

What was measured:
[1] = Acute toxicity, single IV injection in mice; format: in vivo, F1 (CBAxC57Bl) mice
Experimental: The F1 (CBAxC57Bl) mice (18–20 g) were randomized into groups (n = 6) and received eremomycin N-(2-((2-fluorobenzyl)amino)ethyl)amide 4e through single intravenous injections. The intact animals were used as the control. The substance was dissolved in a 5% glucose solution and was administrated in dosage ranges of 130–200 mg/kg into the tail veins of the mice. The concentration of 4e in the injected solution was 5 mg/mL.
The acute toxicity was estimated by the mortality and survival time, as well as by the body weight gain/loss, food consumption, and clinical symptoms of intoxication, including behavioral reactions. […] The LD50 values and the maximum tolerated doses (MTD = LD10) were calculated using the method of Litchfield and Wilcoxon using the StatPlus Professional 3.8.0 software.

[2] = tested on: S.aureus 3798; format: cell-based; details: strain resistant to vancomycin; broth dilution micromethod, CLSI; modal values (or range) of 3–5 independent tests
From the text: (§1) The antimicrobial activity of semisynthetic derivatives of eremomycin 4a–q was studied in comparison with vancomycin on a wide panel of Gram-positive bacteria sensitive (Staphylococcus aureus ATCC 29213, S. aureus R-2, S. haemoliticus 602, S. pneumoniae ATCC 6305, Enteroccus faecium 4, and E. faecalis 559) and resistant to vancomycin (S. aureus 3797, S.aureus 3798, E. faecium 2, E. faecium 3576, E. faecalis 9, E. faecalis 583, and E. gallinarum BΠ 4147), information about the strains given in Table S3. The minimum microbial inhibitory concentration (MIC) for the test compounds was determined by the broth dilution micromethod according to CLSI guidelines, and vancomycin and a standard strain S. aureus ATCC 29213 used as controls (Figure 2 and Tables S4 and S5).
(§2) Table S5. Antibacterial activity of vancomycin and derivatives 4a–q against resistant Gram-positive bacteria.
(§3) Strain/MIC (minimum inhibitory concentration; μg/ml)
(§4) Compound m n R S.aureus 3797 S.aureus 3798 E. faecium 2 E. faecium 3576 E. faecalis 9 E. faecalis 583 E. gallinarum
(§5) *MICs are presented as modal values for 3–5 independently replicate MIC tests for each strain and for the antibiotics. In the range of the obtained MIC
(§6) values, the obtained modal values are highlighted in bold.

[3] = tested on: S. aureus 3797; format: cell-based; details: strain resistant to vancomycin; broth dilution micromethod, CLSI; modal values (or range) of 3–5 independent tests
From the text: as §1, §2, §3, §4, §5, §6

[4] = tested on: E. faecalis 9; format: cell-based; details: strain resistant to vancomycin; broth dilution micromethod, CLSI; modal values (or range) of 3–5 independent tests
From the text: as §1, §2, §3, §4, §5, §6

[5] = tested on: E. faecium 2; format: cell-based; details: strain resistant to vancomycin; broth dilution micromethod, CLSI; modal values (or range) of 3–5 independent tests
From the text: as §1, §2, §3, §4, §5, §6

[6] = tested on: E. faecium 3576; format: cell-based; details: strain resistant to vancomycin; broth dilution micromethod, CLSI; modal values (or range) of 3–5 independent tests
From the text: as §1, §2, §3, §4, §5, §6

[7] = tested on: E. faecalis 583; format: cell-based; details: strain resistant to vancomycin; broth dilution micromethod, CLSI; modal values (or range) of 3–5 independent tests
From the text: as §1, §2, §3, §4, §5, §6

[8] = tested on: E. gallinarum BΠ 4147; format: cell-based; details: strain resistant to vancomycin; broth dilution micromethod, CLSI; modal values (or range) of 3–5 independent tests
From the text: as §1, §2, §3, §4, §5, §6

[9] = tested on: S. pneumoniae ATCC 6305; assay: MIC, broth dilution micromethod (CLSI); format: cell-based; details: sensitive strain, modal values (or range) of 3–5 independent tests
From the text: as §1
(§7) Table S4. Antibacterial activity of vancomycin and derivatives 4a–q against sensitive Gram-positive bacteria.
(§8) Strain/MIC (Minimum inhibitory concentration, μg/ml)*
(§9) Compound m n R S.aureus АТСС S.aureus R-2 S.haemoliticus S.pneumoniae АТСС E. faecium 4 E. faecalis 559
(§10) *MICs are presented as modal values for 3–5 independently replicated MIC tests for each strain and for the antibiotics. In the range of the
(§11) obtained MIC values, the obtained modal values are highlighted in bold.

[10] = tested on: S. aureus (strain 10, clinical isolate); assay: Mouse staphylococcal sepsis model, single IV administration; format: in vivo, mice (SHK colony); details: for Survival: 30 min after infection, n = 10
Experimental: A comparative study of the efficacy of eremomycin N-(2-((2-fluorobenzyl)amino)ethyl)amide (4e) and vancomycin was carried out in a mice staphylococcal sepsis model. Healthy female mice of the SHK colony weighing 20–22 g after two-week quarantine were randomized into groups (n = 10) and received S. aureus as the infectious agent (strain 10, clinical isolate, adapted for growth in vivo by five-fold passaging in mice). In the experiment, female mice of the SHK colony weighing 20–22 g were used. S. aureus (strain 10, clinical isolate), adapted for growth in vivo by five-fold passaging in mice, was used as the infectious agent. Initially, the lethal dose (LD100) of staphylococcus was determined for this mouse line using the intravenous infection route. The mice deaths were counted daily for 10 days. Thus, the lethal dose (LD100) was defined as 8 × 10^8 CFU/mouse. Afterwards, the mice were seated in cages of 10 heads and were infected intravenously with S. aureus at a lethal dose, and the efficacy of the tested drugs was determined by the ED50 value (i.e., the dose at which 50% of the experimental animals survive). Then, 30 min after infection, the mice were injected intravenously with eremomycin N-(2-((2-fluorobenzyl)amino)ethyl)amide (4e) at single doses from 0.1 to 2.5 mg/kg. or vancomycin at doses from 2.5 to 7.5 mg/kg. As a control dose, a group of untreated animals infected with a lethal dose of S. aureus was present in the experiment. The determination of ED50 of the tested compounds was carried out in one experiment under a single control using the Behrens method.

[11] = tested on: S. aureus R-2; format: cell-based; details: sensitive strain; broth dilution micromethod, CLSI; modal values (or range) of 3–5 independent tests
From the text: as §1, §7, §8, §9, §10, §11

[12] = tested on: E. faecium 4; format: cell-based; details: sensitive strain; broth dilution micromethod, CLSI; modal values (or range) of 3–5 independent tests
From the text: as §1, §7, §8, §9, §10, §11

[13] = tested on: E. faecalis 559; format: cell-based; details: sensitive strain; broth dilution micromethod, CLSI; modal values (or range) of 3–5 independent tests
From the text: as §1, §7, §8, §9, §10, §11

[14] = tested on: Staphylococcus aureus ATCC 29213; format: cell-based; details: vancomycin-sensitive control strain; broth dilution micromethod, CLSI; modal values (or range) of 3–5 independent tests
From the text: as §1, §7, §8, §9, §10, §11

[15] = tested on: S. haemoliticus 602; format: cell-based; details: sensitive strain; broth dilution micromethod, CLSI; modal values (or range) of 3–5 independent tests
From the text: as §1, §7, §8, §9, §10, §11

[16] = mouse staphylococcal sepsis model, single IV

Substance	MIC S.aureus 3798 [2] [µg/mL]	MIC S.aureus 3797 [3] [µg/mL]	MIC E. faecalis 9 [4] [µg/mL]	MIC E. faecium 2 [5] [µg/mL]	MIC E. faecium 3576 [6] [µg/mL]	MIC E. faecalis 583 [7] [µg/mL]	MIC E. gallinarum ВП 4147 [8] [µg/mL]	MIC S.pneumoniae ATCC 6305 [9] [µg/mL]	MIC S.aureus R-2 [11] [µg/mL]	MIC E. faecium 4 [12] [µg/mL]	MIC E. faecalis 559 [13] [µg/mL]	MIC S.aureus ATCC 29213 [14] [µg/mL]	MIC S.haemoliticus 602 [15] [µg/mL]	further results
Eremomycin N-(2-((2-fluorobenzyl)amino)ethyl)amide [4e]	1	0.5	0.03 to 0.06	0.5	0.5 to 1	0.25 to 0.5	0.5	0.01	0.03 to 0.06	0.25	0.125	0.125	0.125	outcome after the highest dose ([1]; 200 mg/kg, single IV, mice): died immediately; delayed death of animals ([1]; 130–200 mg/kg, single IV, mice, observed 30 days): No delayed death; therapeutic index (TI = LD50/ED50) ([1]; laboratory animals (mice), IV, LD50 acute toxicity / ED50 staphylococcal sepsis): 318; LD50 ([1]; mice, single IV injection in 5% glucose, 5 mg/mL, n = 6 per group, Litchfield and Wilcoxon, mean (deviation for p ≤ 0.05)): 175.5 (161.7 ÷ 189.8) * mg/kg; MTD (LD10) ([1]; mice, single IV injection, n = 6 per group, Litchfield and Wilcoxon): 144.7 mg/kg; Survival ([10]; dose 0.25 mg/kg, single IV): 30%; Survival ([10]; dose 0.5 mg/kg, single IV): 50%; Survival ([10]; dose 1 mg/kg, single IV): 60%; Survival ([10]; dose 1.5 mg/kg, single IV): 80%; Survival ([10]; dose 2.5 mg/kg, single IV): 100%; ED50 ([10]; mice infected IV with lethal dose of S. aureus (8 × 10^8 CFU/mouse), single IV dose 30 min after infection, n = 10 per group, observed 14 days, Behrens method): 0.55 mg/kg; ED50 ratio: times more active than eremomycin [10, 16]: 3.3 times; ED50 ratio: times more effective than vancomycin [10, 16]: 7.5 times
Eremomycin N-(2-((4-fluorobenzyl)amino)ethyl)amide [4h]	0.5	0.25	0.03	0.5	2	0.5 to 1	0.5 to 1	0.01	0.06	0.25	0.125	0.25	0.25	–
Eremomycin N-(2-((4-methoxybenzyl)amino)ethyl)amide [4d]	0.5 to 1	0.5	0.03	0.5	0.5 to 1	0.5	1	0.01	0.06	0.25	0.5	0.03	0.25	–
Eremomycin N-(2-((4-methylbenzyl)amino)ethyl)amide [4c]	1	0.5	0.03	1	1	1 to 2	0.5	0.01	0.25	0.25	0.25	0.25	0.25	–
Eremomycin N-(2-((4-trifluoromethylbenzyl)amino)ethyl)amide [4q]	2	2	0.25	1 to 2	4	4	4	0.01	2	1	2	1	0.5	–
Eremomycin N-(2-(benzylamino)ethyl)amide [4a]	0.5 to 1	0.5	0.06	1	1 to 2	0.5	1	0.25	0.03	0.25 to 0.5	0.25	0.25	0.5	–
Eremomycin N-(2-phenethylamino)ethyl)amide [4b]	2	1	0.06	1	2	0.5	1	0.01	0.06	0.5	0.5	0.5	0.5	–
